Patent US12077503B2, “Substituted cyclic amides and their use as herbicides” (FMC CORPORATION, priority 2015, dated 2024)
Where two headings read alike, the source gives them in different places.

What was measured:
Format in all cases: in vivo
Kochia (Kochia scoparia) [1] = assay: Test A preemergence; settings: Bassia scoparia, pre-emergence, 240 h; for pest or weed control at 125 g/ha: 125 g ai/ha; for pest or weed control at 500 g/ha: 500 g ai/ha
In short: (§1)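 Each rating is a visual injury score from 0 to 100 given about 10 d after treatment, judged against untreated controls kept alongside in the greenhouse. In loam soil–sand blend, seeds got a preemergence directed soil spray, while postemergence plants were 2 to 10 cm tall at spraying.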

[2] = test system: barnyardgrass (Echinochloa crus-galli); assay: Test A preemergence; settings: Echinochloa crus-galli, pre-emergence, 240 h; for pest or weed control at 125 g/ha: 125 g ai/ha; for pest or weed control at 500 g/ha: 500 g ai/ha
In short: as §1

[3] = test system: giant foxtail (Setaria faberii); assay: Test A preemergence; settings: Setaria faberi, pre-emergence, 240 h; for pest or weed control at 125 g/ha: 125 g ai/ha; for pest or weed control at 500 g/ha: 500 g ai/ha
In short: as §1

[4] = test system: pigweed (Amaranthus retroflexus); assay: Test A preemergence; settings: Amaranthus retroflexus, pre-emergence, 240 h; for pest or weed control at 125 g/ha: 125 g ai/ha; for pest or weed control at 500 g/ha: 500 g ai/ha
[5] = test system: ragweed (common ragweed, Ambrosia elatior); assay: Test A preemergence; settings: Ambrosia artemisiifolia, pre-emergence, 240 h; for pest or weed control at 125 g/ha: 125 g ai/ha; for pest or weed control at 500 g/ha: 500 g ai/ha
In short: as §1

[6] = test system: ryegrass, Italian (Italian ryegrass, Lolium multiflorum); assay: Test A preemergence; settings: Lolium multiflorum, pre-emergence, 240 h; for pest or weed control at 125 g/ha: 125 g ai/ha; for pest or weed control at 500 g/ha: 500 g ai/ha
In short: as §1

Kochia (Kochia scoparia) [7] = assay: Test A postemergence; settings: Bassia scoparia, post-emergence, 240 h, 125 g ai/ha, Postemergence; visual injury after approximately 10 d; 0 to 100 scale where 0 is no effect and 100 is complete control; read-out: Plant response rating, Kochia
In short: as §1

[8] = test system: barnyardgrass (Echinochloa crus-galli); assay: Test A postemergence; settings: Echinochloa crus-galli, post-emergence, 240 h, 125 g ai/ha, Postemergence; visual injury after approximately 10 d; 0 to 100 scale where 0 is no effect and 100 is complete control; read-out: Plant response rating, Barnyardgrass
In short: as §1

[9] = test system: giant foxtail (Setaria faberii); assay: Test A postemergence; settings: Setaria faberi, post-emergence, 240 h, 125 g ai/ha, Postemergence; visual injury after approximately 10 d; 0 to 100 scale where 0 is no effect and 100 is complete control; read-out: Plant response rating, Foxtail, Giant
In short: as §1

[10] = test system: ragweed (common ragweed, Ambrosia elatior); assay: Test A postemergence; settings: Ambrosia artemisiifolia, post-emergence, 240 h, 125 g ai/ha, Postemergence; visual injury after approximately 10 d; 0 to 100 scale where 0 is no effect and 100 is complete control; read-out: Plant response rating, Ragweed
In short: as §1

[11] = test system: barnyardgrass (Echinochloa crus-galli); assay: Test B flooded paddy test; settings: Echinochloa crus-galli, Flood, 250 g ai/ha; scale of 0 to 100 where 0 is no effect and 100 is complete control; read-out: Barnyardgrass plant response rating
In short: (§2)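 Rating scale 0–100 (visual, vs untreated controls) after a 13–15 d greenhouse period; application to the flood layer, 3 cm above soil and maintained; plants at 2-leaf stage when treated.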

[12] = test system: ducksalad (Heteranthera limosa); assay: Test B flooded paddy test; settings: Heteranthera limosa, Flood, 250 g ai/ha; scale of 0 to 100 where 0 is no effect and 100 is complete control; read-out: Ducksalad plant response rating
In short: as §2

rice (Oryra sativa) = assay: Test B flooded paddy test; settings: Oryza sativa, Flood, 250 g ai/ha; scale of 0 to 100 where 0 is no effect and 100 is complete control; read-out: Rice plant response rating
In short: as §2

[13] = test system: sedge, umbrella (small-flower umbrella sedge, Cyperus difformis); assay: Test B flooded paddy test; settings: Cyperus difformis, Flood, 250 g ai/ha; scale of 0 to 100 where 0 is no effect and 100 is complete control; read-out: Sedge, Umbrella plant response rating
In short: as §2

[14] = Preemergence, visual injury rating after approximately 10 d, read-out: Kochia plant response rating (0 to 100 scale, 0 is no effect, 100 is complete control)
[15] = preemergence, visual injury rating about 10 d after treatment, 0 to 100 scale (0 no effect, 100 complete control), read-out: Kochia plant response rating
[16] = Preemergence, visual injury rating after approximately 10 d, read-out: Barnyardgrass plant response rating (0 to 100 scale, 0 is no effect, 100 is complete control)
[17] = preemergence, visual injury rating about 10 d after treatment, 0 to 100 scale (0 no effect, 100 complete control), read-out: Barnyardgrass plant response rating
[18] = Preemergence, visual injury rating after approximately 10 d, read-out: Foxtail, Giant plant response rating (0 to 100 scale, 0 is no effect, 100 is complete control)
[19] = preemergence, visual injury rating about 10 d after treatment, 0 to 100 scale (0 no effect, 100 complete control), read-out: Foxtail, Giant plant response rating
[20] = Preemergence, visual injury rating after approximately 10 d, read-out: Pigweed plant response rating (0 to 100 scale, 0 is no effect, 100 is complete control)
[21] = preemergence, visual injury rating about 10 d after treatment, 0 to 100 scale (0 no effect, 100 complete control), read-out: Pigweed plant response rating
[22] = Preemergence, visual injury rating after approximately 10 d, read-out: Ragweed plant response rating (0 to 100 scale, 0 is no effect, 100 is complete control)
[23] = preemergence, visual injury rating about 10 d after treatment, 0 to 100 scale (0 no effect, 100 complete control), read-out: Ragweed plant response rating
[24] = Preemergence, visual injury rating after approximately 10 d, read-out: Ryegrass, Italian plant response rating (0 to 100 scale, 0 is no effect, 100 is complete control)
[25] = preemergence, visual injury rating about 10 d after treatment, 0 to 100 scale (0 no effect, 100 complete control), read-out: Ryegrass, Italian plant response rating

| Structure (SMILES) | pest or weed control at 125 g/ha (Kochia (Kochia scoparia) [7]) [%] | pest or weed control at 125 g/ha [8] [%] | pest or weed control at 125 g/ha [9] [%] | pest or weed control at 125 g/ha [10] [%] | pest or weed control at 250 g/ha [11] [%] | pest or weed control at 250 g/ha [12] [%] | pest or weed control at 250 g/ha (rice (Oryra sativa)) [%] | pest or weed control at 250 g/ha [13] [%] | pest or weed control at 125 g/ha (Kochia (Kochia scoparia) [1]; [14]) [%] | pest or weed control at 500 g/ha (Kochia (Kochia scoparia) [1]; [15]) [%] | pest or weed control at 125 g/ha [2, 16] [%] | pest or weed control at 500 g/ha [2, 17] [%] | pest or weed control at 125 g/ha [3, 18] [%] | pest or weed control at 500 g/ha [3, 19] [%] | pest or weed control at 125 g/ha [4, 20] [%] | pest or weed control at 500 g/ha [4, 21] [%] | pest or weed control at 125 g/ha [5, 22] [%] | pest or weed control at 500 g/ha [5, 23] [%] | pest or weed control at 125 g/ha [6, 24] [%] | pest or weed control at 500 g/ha [6, 25] [%] | other results |
| --- | --- | --- | --- | --- | --- | --- | --- | --- | --- | --- | --- | --- | --- | --- | --- | --- | --- | --- | --- | --- | --- |
| CN1CC[C@H](c2cccc(Cl)c2)[C@@H](C(=O)Nc2cccc(Cl)c2F)C1=O [Compound 924] | 0 | 90 | 90 | 0 | 50 | 70 | 0 | 0 |  |  |  |  |  |  |  |  |  |  |  |  | pest or weed control at 125 g/ha (Kochia (Kochia scoparia) [1]; preemergence, 0 to 100 scale where 0 is no effect and 100 is complete control, read-out: Kochia plant response rating): 0%; pest or weed control at 500 g/ha (Kochia (Kochia scoparia) [1]; Preemergence, visual injury vs untreated controls after approximately 10 d, read-out: Kochia plant response rating (0 to 100 scale where 0 is no effect and 100 is complete control)): 0%; pest or weed control at 125 g/ha ([2]; preemergence, 0 to 100 scale where 0 is no effect and 100 is complete control, read-out: Barnyardgrass plant response rating): 90%; pest or weed control at 500 g/ha ([2]; Preemergence, visual injury vs untreated controls after approximately 10 d, read-out: Barnyardgrass plant response rating (0 to 100 scale where 0 is no effect and 100 is complete control)): 90%; pest or weed control at 125 g/ha ([3]; preemergence, 0 to 100 scale where 0 is no effect and 100 is complete control, read-out: Foxtail, Giant plant response rating): 90%; pest or weed control at 500 g/ha ([3]; Preemergence, visual injury vs untreated controls after approximately 10 d, read-out: Foxtail, Giant plant response rating (0 to 100 scale where 0 is no effect and 100 is complete control)): 90%; pest or weed control at 125 g/ha ([4]; preemergence, 0 to 100 scale where 0 is no effect and 100 is complete control, read-out: Pigweed plant response rating): 0%; pest or weed control at 500 g/ha ([4]; Preemergence, visual injury vs untreated controls after approximately 10 d, read-out: Pigweed plant response rating (0 to 100 scale where 0 is no effect and 100 is complete control)): 0%; pest or weed control at 125 g/ha ([5]; preemergence, 0 to 100 scale where 0 is no effect and 100 is complete control, read-out: Ragweed plant response rating): 0%; pest or weed control at 500 g/ha ([5]; Preemergence, visual injury vs untreated controls after approximately 10 d, read-out: Ragweed plant response rating (0 to 100 scale where 0 is no effect and 100 is complete control)): 0%; pest or weed control at 125 g/ha ([6]; preemergence, 0 to 100 scale where 0 is no effect and 100 is complete control, read-out: Ryegrass, Italian plant response rating): 20%; pest or weed control at 500 g/ha ([6]; Preemergence, visual injury vs untreated controls after approximately 10 d, read-out: Ryegrass, Italian plant response rating (0 to 100 scale where 0 is no effect and 100 is complete control)): 70% |
| Cc1cc([C@H]2CN(C)C(=O)[C@@H]2C(=O)Nc2ccccc2S(C)(=O)=O)ccc1Cl [Compound 944] | 0 | 80 | 90 | 40 | 40 | 75 | 0 | 0 | 0 | 70 | 90 | 90 | 90 | 90 | 0 | 20 | 50 | 50 | 0 | 0 |  |
| O=C1NC[C@H](c2cc(C(F)(F)F)ccn2)[C@H]1C(=O)Nc1ccccc1F [Compound 948] | 0 | 70 | 70 | 0 | 0 | 0 | 0 | 0 | 0 | 0 | 70 | 90 | 70 | 90 | 0 | 0 | 0 | 0 | 0 | 0 |  |
| CC(C)Oc1ccc([C@H]2CN(C)C(=O)[C@@H]2C(=O)Nc2ccc(F)cc2F)cc1 [Compound 954] | 0 | 60 | 60 | 0 | 0 | 35 | 0 | 0 | 0 | 20 | 70 | 90 | 90 | 90 | 0 | 0 | 0 | 0 | 0 | 0 |  |
| CCOc1cccc([C@H]2CN(C)C(=O)[C@@H]2C(=O)Nc2cccc(F)c2F)c1 [Compound 956] | 30 | 90 | 80 | 20 | 70 | 100 | 0 | 0 | 90 | 90 | 100 | 100 | 100 | 100 | 0 | 0 | 20 | 80 | 40 | 90 |  |
